Test results from PubChem BioAssay (NCI).
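Where inhibition never reached the appropriate level, the endpoint shown equals the highest concentration tested. Otherwise, values were interpolated linearly from a five-concentration, 48-hour dose response in 96-well plates. TGI: concentration producing complete growth inhibition.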

Experiments:
Experiment in all cases: growth of human tumour cells (NCI), 48 h
M14 melanoma = test system: M14 melanoma
MOLT-4 leukemia = test system: MOLT-4 leukemia
OVCAR-4 ovarian = test system: OVCAR-4 ovarian
SNB-75 CNS = test system: SNB-75 CNS
SNB-19 CNS = test system: SNB-19 CNS
A498 renal = test system: A498 renal
RPMI-8226 leukemia = test system: RPMI-8226 leukemia
MALME-3M melanoma = test system: MALME-3M melanoma
LOX IMVI melanoma = test system: LOX IMVI melanoma
IGROV1 ovarian = test system: IGROV1 ovarian
HT29 colon = test system: HT29 colon
SF-539 CNS = test system: SF-539 CNS
UACC-257 melanoma = test system: UACC-257 melanoma
NCI/ADR-RES ovarian = test system: NCI/ADR-RES ovarian
SK-MEL-5 melanoma = test system: SK-MEL-5 melanoma
BT-549 breast = test system: BT-549 breast
OVCAR-3 ovarian = test system: OVCAR-3 ovarian
OVCAR-5 ovarian = test system: OVCAR-5 ovarian
HS 578T breast = test system: HS 578T breast
SF-268 CNS = test system: SF-268 CNS
DU-145 prostate = test system: DU-145 prostate
NCI-H226 lung = test system: NCI-H226 lung
MCF7 breast = test system: MCF7 breast
UACC-62 melanoma = test system: UACC-62 melanoma
SK-OV-3 ovarian = test system: SK-OV-3 ovarian
RXF 393 renal = test system: RXF 393 renal
HCT-15 colon = test system: HCT-15 colon
TK-10 renal = test system: TK-10 renal
SR leukemia = test system: SR leukemia
EKVX NSCLC = test system: EKVX NSCLC
HOP-92 NSCLC = test system: HOP-92 NSCLC
HCT-116 colon = test system: HCT-116 colon
HCC-2998 colon = test system: HCC-2998 colon
NCI-H460 lung = test system: NCI-H460 lung
OVCAR-8 ovarian = test system: OVCAR-8 ovarian
SN12C renal = test system: SN12C renal
786-0 renal = test system: 786-0 renal
MDA-N = test system: MDA-N
ACHN renal = test system: ACHN renal
KM12 colon = test system: KM12 colon
U251 CNS = test system: U251 CNS
NCI-H23 lung = test system: NCI-H23 lung
UO-31 renal = test system: UO-31 renal
SK-MEL-2 melanoma = test system: SK-MEL-2 melanoma
COLO 205 colon = test system: COLO 205 colon
MDA-MB-231 breast = test system: MDA-MB-231 breast
NCI-H522 lung = test system: NCI-H522 lung
K-562 leukemia = test system: K-562 leukemia
SF-295 CNS = test system: SF-295 CNS
A549 NSCLC = test system: A549 NSCLC
PC-3 prostate = test system: PC-3 prostate
HOP-62 NSCLC = test system: HOP-62 NSCLC
MDA-MB-435 = test system: MDA-MB-435
CAKI-1 renal = test system: CAKI-1 renal
CCRF-CEM leukemia = test system: CCRF-CEM leukemia
SK-MEL-28 melanoma = test system: SK-MEL-28 melanoma
T-47D breast = test system: T-47D breast
HL-60(TB) leukemia = test system: HL-60(TB) leukemia
SW-620 colon = test system: SW-620 colon

SMILES: CCOC(=O)C(=Cc1[nH]c2ccccc2c1-c1c[nH]c2ccccc12)C(=O)OCC
- TGI (M14 melanoma): 21.7 µM
- TGI (MOLT-4 leukemia): > 100 µM
- TGI (OVCAR-4 ovarian): 20.3 µM
- TGI (SNB-75 CNS): 26.4 µM
- TGI (SNB-19 CNS): 28.3 µM
- TGI (A498 renal): 28.6 µM
- TGI (RPMI-8226 leukemia): 23.8 µM
- TGI (MALME-3M melanoma): 34.4 µM
- TGI (LOX IMVI melanoma): 26.7 µM
- TGI (IGROV1 ovarian): 24.8 µM
- TGI (HT29 colon): 17.5 µM
- TGI (SF-539 CNS): 39.1 µM
- TGI (UACC-257 melanoma): 23.8 µM
- TGI (NCI/ADR-RES ovarian): 47.5 µM
- TGI (SK-MEL-5 melanoma): 29.2 µM
- TGI (BT-549 breast): 33.1 µM
- TGI (OVCAR-3 ovarian): 21.2 µM
- TGI (OVCAR-5 ovarian): 30.3 µM
- TGI (HS 578T breast): 91.3 µM
- TGI (SF-268 CNS): 30.5 µM
- TGI (DU-145 prostate): 27.1 µM
- TGI (NCI-H226 lung): 37.5 µM
- TGI (MCF7 breast): 22.2 µM
- TGI (UACC-62 melanoma): 19.4 µM
- TGI (SK-OV-3 ovarian): 49 µM
- TGI (RXF 393 renal): 23.3 µM
- TGI (HCT-15 colon): 43.9 µM
- TGI (TK-10 renal): 26.1 µM
- TGI (SR leukemia): 32.7 µM
- TGI (EKVX NSCLC): 31.8 µM
- TGI (HOP-92 NSCLC): 23.5 µM
- TGI (HCT-116 colon): 22.8 µM
- TGI (HCC-2998 colon): 25 µM
- TGI (NCI-H460 lung): 29.8 µM
- TGI (OVCAR-8 ovarian): 25.8 µM
- TGI (SN12C renal): 29.4 µM
- TGI (786-0 renal): 7.15 µM
- TGI (MDA-N): 26.5 µM
- TGI (ACHN renal): 24.5 µM
- TGI (KM12 colon): 18 µM
- TGI (U251 CNS): 24.3 µM
- TGI (NCI-H23 lung): 35.4 µM
- TGI (UO-31 renal): 26.3 µM
- TGI (SK-MEL-2 melanoma): 29.6 µM
- TGI (COLO 205 colon): 40.8 µM
- TGI (MDA-MB-231 breast): 39.3 µM
- TGI (NCI-H522 lung): > 100 µM
- TGI (K-562 leukemia): 26.6 µM
- TGI (SF-295 CNS): 25.3 µM
- TGI (A549 NSCLC): 35.9 µM
- TGI (PC-3 prostate): 25 µM
- TGI (HOP-62 NSCLC): 28.1 µM
- TGI (MDA-MB-435): 18.3 µM
- TGI (CAKI-1 renal): 30.8 µM

SMILES: C(=Nc1ccc(-c2nc3ccccc3[nH]2)cc1)c1cccs1
- TGI (M14 melanoma): > 100 µM
- TGI (MOLT-4 leukemia): > 100 µM
- TGI (OVCAR-4 ovarian): > 100 µM
- TGI (SNB-75 CNS): > 100 µM
- TGI (SNB-19 CNS): > 100 µM
- TGI (A498 renal): > 100 µM
- TGI (RPMI-8226 leukemia): > 100 µM
- TGI (MALME-3M melanoma): > 100 µM
- TGI (LOX IMVI melanoma): > 100 µM
- TGI (IGROV1 ovarian): > 100 µM
- TGI (HT29 colon): > 100 µM
- TGI (SF-539 CNS): > 100 µM
- TGI (UACC-257 melanoma): > 100 µM
- TGI (NCI/ADR-RES ovarian): > 100 µM
- TGI (SK-MEL-5 melanoma): > 100 µM
- TGI (BT-549 breast): 86.4 µM
- TGI (OVCAR-3 ovarian): > 100 µM
- TGI (OVCAR-5 ovarian): > 100 µM
- TGI (HS 578T breast): > 100 µM
- TGI (SF-268 CNS): > 100 µM
- TGI (DU-145 prostate): > 100 µM
- TGI (NCI-H226 lung): > 100 µM
- TGI (CCRF-CEM leukemia): > 100 µM
- TGI (MCF7 breast): > 100 µM
- TGI (SK-OV-3 ovarian): > 100 µM
- TGI (RXF 393 renal): > 100 µM
- TGI (HCT-15 colon): > 100 µM
- TGI (TK-10 renal): > 100 µM
- TGI (SK-MEL-28 melanoma): > 100 µM
- TGI (SR leukemia): > 100 µM
- TGI (EKVX NSCLC): > 100 µM
- TGI (HOP-92 NSCLC): 98.2 µM
- TGI (HCT-116 colon): > 100 µM
- TGI (NCI-H460 lung): > 100 µM
- TGI (OVCAR-8 ovarian): > 100 µM
- TGI (SN12C renal): > 100 µM
- TGI (786-0 renal): > 100 µM
- TGI (MDA-N): > 100 µM
- TGI (ACHN renal): > 100 µM
- TGI (KM12 colon): > 100 µM
- TGI (U251 CNS): > 100 µM
- TGI (NCI-H23 lung): > 100 µM
- TGI (UO-31 renal): > 100 µM
- TGI (SK-MEL-2 melanoma): > 100 µM
- TGI (COLO 205 colon): > 100 µM
- TGI (MDA-MB-231 breast): > 100 µM
- TGI (NCI-H522 lung): > 100 µM
- TGI (K-562 leukemia): > 100 µM
- TGI (T-47D breast): > 100 µM
- TGI (SF-295 CNS): > 100 µM
- TGI (HL-60(TB) leukemia): > 100 µM
- TGI (A549 NSCLC): > 100 µM
- TGI (PC-3 prostate): > 100 µM
- TGI (SW-620 colon): > 100 µM
- TGI (HOP-62 NSCLC): > 100 µM
- TGI (MDA-MB-435): > 100 µM
- TGI (CAKI-1 renal): > 100 µM

SMILES: O=C(O)Cc1cccc2c(=O)c3ccccc3oc12
- TGI (M14 melanoma): > 100 µM
- TGI (MOLT-4 leukemia): > 100 µM
- TGI (OVCAR-4 ovarian): > 100 µM
- TGI (SNB-19 CNS): > 100 µM
- TGI (A498 renal): > 100 µM
- TGI (RPMI-8226 leukemia): > 100 µM
- TGI (MALME-3M melanoma): > 100 µM
- TGI (LOX IMVI melanoma): > 100 µM
- TGI (IGROV1 ovarian): > 100 µM
- TGI (HT29 colon): > 100 µM
- TGI (SF-539 CNS): > 100 µM
- TGI (UACC-257 melanoma): > 100 µM
- TGI (NCI/ADR-RES ovarian): > 100 µM
- TGI (SK-MEL-5 melanoma): > 100 µM
- TGI (BT-549 breast): > 100 µM
- TGI (OVCAR-3 ovarian): > 100 µM
- TGI (HS 578T breast): > 100 µM
- TGI (SF-268 CNS): > 100 µM
- TGI (DU-145 prostate): > 100 µM
- TGI (NCI-H226 lung): > 100 µM
- TGI (CCRF-CEM leukemia): > 100 µM
- TGI (MCF7 breast): > 100 µM
- TGI (UACC-62 melanoma): 77.2 µM
- TGI (SK-OV-3 ovarian): 41.9 µM
- TGI (HCT-15 colon): > 100 µM
- TGI (TK-10 renal): > 100 µM
- TGI (SK-MEL-28 melanoma): > 100 µM
- TGI (SR leukemia): > 100 µM
- TGI (EKVX NSCLC): > 100 µM
- TGI (HOP-92 NSCLC): > 100 µM
- TGI (HCT-116 colon): > 100 µM
- TGI (HCC-2998 colon): 46 µM
- TGI (NCI-H460 lung): > 100 µM
- TGI (OVCAR-8 ovarian): > 100 µM
- TGI (SN12C renal): > 100 µM
- TGI (786-0 renal): > 100 µM
- TGI (MDA-N): > 100 µM
- TGI (ACHN renal): > 100 µM
- TGI (KM12 colon): > 100 µM
- TGI (U251 CNS): > 100 µM
- TGI (NCI-H23 lung): > 100 µM
- TGI (UO-31 renal): > 100 µM
- TGI (SK-MEL-2 melanoma): 56.5 µM
- TGI (COLO 205 colon): > 100 µM
- TGI (MDA-MB-231 breast): > 100 µM
- TGI (NCI-H522 lung): > 100 µM
- TGI (K-562 leukemia): > 100 µM
- TGI (T-47D breast): 61.7 µM
- TGI (SF-295 CNS): > 100 µM
- TGI (HL-60(TB) leukemia): > 100 µM
- TGI (A549 NSCLC): > 100 µM
- TGI (PC-3 prostate): > 100 µM
- TGI (SW-620 colon): > 100 µM
- TGI (HOP-62 NSCLC): > 100 µM
- TGI (MDA-MB-435): > 100 µM
- TGI (CAKI-1 renal): > 100 µM
